Results as given in patent US12257284B2, “Lantibiotics, lantibiotic-producing bacteria, compositions and methods of production and use thereof” (MEMORIAL SLOAN-KETTERING CANCER CENTER, priority 2017, dated 2025).
Non-standard residues stand in square brackets, D forms with d. No end group written: not given here. Dhb = C/C=C(\N)C(=O)O; Dha = C=C(N)C(=O)O

Assays:
[1] = tested on: L. monocytogenes; assay: Spectrum: bacterial survival with B. producta culture extract; format: cell-based; conditions: greater than 100 kDa concentrated supernatant; 6, 24 or 48 hours; FIG. 34
Protocol: (§1) 10^7 CFU/mL B. producta was cultured for 0, 6, 24 hours in BHIS anaerobically at 37° C. The culture supernatant at 0, 6, and 24 hours was filtered through a 0.22 μm filter, then concentrated by ultrafiltration with a molecular weight cut off greater than 100 kDa. The concentrated culture supernatant was then diluted to the original volume with fresh BHIS culture medium. 10^3 CFU/mL VRE, B. producta, C. bolteae, P. distasonis, B. sartorii, C. difficile, K pneumoniae, E. coli, S. aureus, E. faecalis, E. faecium, or L monocytogenes were cultured for 6, 24, or 48 hours anaerobically at 37° C.

[2] = tested on: S. aureus; assay: as above; format: cell-based; conditions: greater than 100 kDa concentrated supernatant; 6, 24 or 48 hours; FIG. 34
Protocol: as §1

[3] = tested on: E. faecalis; assay: as above; format: cell-based; conditions: greater than 100 kDa concentrated supernatant; 6, 24 or 48 hours; FIG. 34
Protocol: as §1

[4] = tested on: K. pneumoniae; assay: as above; format: cell-based; conditions: greater than 100 kDa concentrated supernatant; 6, 24 or 48 hours; FIG. 34
Protocol: as §1

[5] = tested on: E. coli; assay: as above; format: cell-based; conditions: greater than 100 kDa concentrated supernatant; 6, 24 or 48 hours; FIG. 34
Protocol: as §1

[6] = tested on: C. difficile; assay: as above; format: cell-based; conditions: greater than 100 kDa concentrated supernatant; 6, 24 or 48 hours; FIG. 34
Protocol: as §1

[7] = tested on: B. sartorii; assay: as above; format: cell-based; conditions: greater than 100 kDa concentrated supernatant; 6, 24 or 48 hours; FIG. 34
Protocol: as §1

[8] = tested on: E. faecium; assay: as above; format: cell-based; conditions: greater than 100 kDa concentrated supernatant; 6, 24 or 48 hours; FIG. 34
Protocol: as §1

[9] = tested on: P. distasonis; assay: as above; format: cell-based; conditions: greater than 100 kDa concentrated supernatant; 6, 24 or 48 hours; FIG. 34
Protocol: as §1

[10] = tested on: B. producta; assay: as above; format: cell-based; conditions: greater than 100 kDa concentrated supernatant; 6, 24 or 48 hours; FIG. 34
Protocol: as §1

[11] = tested on: gram-positive bacteria; assay: Minimum inhibitory concentration by serial dilution against gram-positive bacterial strains; format: cell-based; conditions: dialyzed protein serially diluted in BHIS, 10^5 CFU/mL bacteria, 24 hours; FIG. 35
Protocol: 10^7 CFU/mL B. producta Caballero strain or Honda strain was cultured for 24 hours in BHIS anaerobically at 37° C. The culture supernatant was filtered through a 0.22 μm filter. Ammonium sulfate was added to the filtered culture supernatant at varying concentrations to precipitate proteins. Precipitated proteins were resolubilized in water (5 mg/mL) and dialyzed. The dialyzed protein or nisin (1:2) were serially diluted with fresh BHIS across a row of wells in a 96 well plate per gram-positive bacteria strain. 10^5 CFU/mL of various gram-positive bacterial strains indicated in FIG. 35 were cultured for 24 hours anaerobically at 37° C. The minimum inhibitory concentration (highest dilution at which gram-positive bacteria growth was inhibited) was thus identified.

[12] = tested on: VRE; assay: VRE cultured with ammonium sulfate precipitated, dialyzed B. producta protein, VRE CFU quantitated; format: cell-based, vancomycin-resistant Enterococcus
Protocol: 10^7 CFU/mL B. producta was cultured for 24 hours anaerobically at 37° C. in BHIS. The culture supernatant was filtered through a 0.22 μm filter. Ammonium sulfate was added to the filtered culture supernatant at varying concentrations to precipitate proteins. Precipitated proteins were resolubilized in phosphate buffered saline (PBS) (2 mg/mL) and dialyzed. The dialyzed protein was returned to the original culture volume with fresh culture medium and samples were innoculated with 10^3 CFU/mL VRE and cultured for 6 or 24 hours anaerobically at 37° C. […] 10^7 CFU/mL B. producta was cultured for 24 hours anaerobically at 37° C. in BHIS. The culture supernatant was filtered through a 0.22 μm filter. Ammonium sulfate was added to the filtered culture supernatant at varying concentrations to precipitate proteins. Precipitated proteins were resolubilized in phosphate buffered saline (PBS) (2 mg/mL) and dialyzed (the dialyzed protein was returned to the original culture volume with PBS) and samples were innoculated with 10^3 CFU/mL VRE and cultured for 6 or 24 hours anaerobically at 37° C.
10^7 CFU/mL B. producta was cultured for 24 hours anaerobically at 37° C. in BHIS. The culture supernatant was filtered through a 0.22 μm filter. 45% ammonium sulfate was added to the filtered culture supernatant to precipitate proteins. The precipitate was resolubilized in PBS (2 mg/mL), then dialyzed. The dialyzed protein was incubated with Proteinase K (1 mg/mL) for 1 hour at 37° C. These conditions are sufficient to completely digest BSA at a concentration of 100 μg/m, as evidenced by the […] in gel electrophoresis. The dialyzed protein/proteinase K solution was returned to its original volume in fresh culture medium and inoculated with 10^3 CFU/mL VRE the cultured for 6 or 24 hours anaerobically at 37° C.
10^7 CFU/mL B. producta was cultured for 24 hours anaerobically at 37° C. in BHIS. The culture supernatant was filtered through a 0.22 μm filter. 45% ammonium sulfate was added to the filtered culture supernatant to precipitate proteins. The precipitate was resolubilized in PBS (2 mg/mL), then dialyzed. The dialyzed protein was incubated at 100° C. for ten minutes. The heated, dialyzed protein solution was returned to its original volume in fresh culture medium and inoculated with 10^3 CFU/mL VRE the cultured for 6 or 24 hours anaerobically at 37° C.
10^7 CFU/mL B. producta was cultured for 24 hours anaerobically at 37° C. in BHIS. The culture supernatant was filtered through a 0.22 μm filter. Ammonium sulfate was added to the filtered culture supernatant at varying concentrations to precipitate proteins. […] Fecal pellets were collected 0, 5, 10 days after bacterial consortia transplant, and VRE was quantitated.

[13] = tested on: VRE; assay: VRE cultured in cecal supernatant of mice colonized with B. producta strains; format: cell-based, vancomycin-resistant Enterococcus; conditions: cecal content 7 days post-transplant, 100 mg/mL, filtered; VRE 10^3 CFU/mL, 6 hours; FIG. 20
Protocol: 6-8 week old, C57BL/6 mice were administered ampicillin (0.5 g/L) in the drinking water for 5 days, and subsequently orally gavaged with a bacterial consortia (10^7 CFU per bacterial isolate). Bacterial consortia for oral gavage were prepared by individually culturing the B. producta Caballero strain, or the B. producta Honda strain, on Columbia base medium (agar, peptones, cornstarch) plus 5% sheep blood agar plates, anaerobically at 37° C. overnight. Each isolate was subsequently harvested and resuspended in reduced phosphate buffered saline (PBS) to a final concentration of 10^8 CFU/mL. 7 days post-transplant, cecal content was harvested and resuspended in PBS to a final concentration of 100 mg/mL. Cecal supernatant was collected by filtration through a 0.22 μm filter. VRE inoculated at 10^3 CFU/mL in the cecal supernatant and incubated at 37° C. aerobically. VRE was cultured for 6 hours and quantitated.

[14] = tested on: VRE; assay: Microscopy of VRE cultured with B. producta factor; format: cell-based, vancomycin-resistant Enterococcus; conditions: 10^8 CFU/mL VRE, 24 hours
Protocol: 10^7 CFU/mL B. producta was cultured for 24 hours anaerobically at 37° C. in BHIS. The culture supernatant was filtered through a 0.22 μm filter. Ammonium sulfate was added to the filtered culture supernatant at varying concentrations to precipitate proteins. Precipitated proteins were resolubilized in phosphate buffered saline (PBS) (2 mg/mL) and dialyzed. The dialyzed protein was returned to the original culture volume with supplemented PBS (the dialyzed protein was returned to the original culture volume with PBS) and samples were innoculated with 10^8 CFU/mL VRE and cultured for 24 hours anaerobically at 37° C. Bacteria were fixed onto slides for microscopy.

[15] = tested on: VRE; assay: VRE cultured in filtered culture supernatants or size fractions, VRE CFU quantitated; format: cell-based, vancomycin-resistant Enterococcus; conditions: VRE 6 hours
Protocol: 10^7 CFU/mL B. producta or C. bolteae±10^3 CFU/mL VRE were cultured in BHIS for 6 hours anaerobically at 37° C. The culture supernatants were filtered through a 0.22 μm filter. 10^3 CFU/mL VRE were cultured in the filtered culture supernatants for 2, 6, or 24 hours anaerobically at 37° C. […] 10^7 CFU/mL B. producta, C. bolteae, P. distasonis, or B. sartorii were cultured in BHI overnight (at least 8 hours) anaerobically at 37° C. The culture supernatants were filtered through a 0.22 μm filter and diluted 1:2 in fresh BHIS. 10^3 CFU/mL VRE were cultured in the filtered culture supernatants for 2, 6, or 24 hours anaerobically at 37° C.
10^7 CFU/mL B. producta was cultured for 0, 6, 24 hours in BHIS anaerobically at 37° C. Culture growth was verified by quantitating B. producta CFU at 6, 24, 48, and 72 hours. […] The culture supernatant at 0, 6, and 24 hours was filtered through a 0.22 μm filter, then concentrated by ultrafiltration with a molecular weight cut off greater than 100 kDa. The concentrated culture supernatant was then diluted to the original volume with fresh BHIS culture medium. Concentrated/diluted medium was inoculated with 10^3 CFU/mL VRE and cultured anaerobically at 37° C. for 6, 24, 48 hours.
10^7 CFU/mL B. producta were cultured for 24 hours anaerobically at 37° C. in BHIS. […]

B. producta factor: VRE-inhibiting factor secreted by B. producta, a lantibiotic according to the disclosure (SEQ. ID. No.: 3) (I[Dhb][Dha]I[Dha]LA[Dhb]PGAK[Dhb]GALMGAV[Dhb]GILM[Dhb]APVQ[Dhb]A[Dhb]AGAQI[Dhb]GK; not fully specified; also: lantibiotic (lanthionine bridges not given here))
Inhibition of L. monocytogenes (survival relative to negative control extract) [1]: inhibited
Inhibition of S. aureus (survival relative to negative control extract) [2]: inhibited
Inhibition of E. faecalis (survival relative to negative control extract) [3]: inhibited
Inhibition of K. pneumoniae (survival relative to negative control extract) [4]: not
Inhibition of E. coli (survival relative to negative control extract) [5]: not
Inhibition of C. difficile (survival relative to negative control extract) [6]: not
Inhibition of B. sartorii (survival relative to negative control extract) [7]: not
Inhibition of E. faecium (survival relative to negative control extract) [8]: inhibited
Inhibition of P. distasonis (survival relative to negative control extract) [9]: not
Inhibition of B. producta (survival relative to negative control extract) [10]: not
Inhibition of various gram-positive bacterial strains (minimum inhibitory concentration, highest dilution) [11]: broadly inhibits gram-positive bacteria
Number of VRE (CFU) over time in PBS (bactericidal effect) ([12]; 10^5 CFU/mL VRE, 6-120 hours in PBS, FIG. 18): permanent decline in the number of VRE
VRE inhibition after boiling ([12]; 45% ammonium sulfate precipitate, 100° C. for ten minutes, FIG. 13): able to inhibit VRE
VRE inhibition after Proteinase K digestion ([12]; 45% ammonium sulfate precipitate, Proteinase K 1 mg/mL, 1 hour at 37° C., FIG. 12): able to inhibit VRE
VRE inhibition by ammonium sulfate precipitate ([12]; precipitate resolubilized, dialyzed, returned to volume with PBS, 6 or 24 hours, FIG. 11): inhibited VRE
VRE growth in cecal supernatant of colonized mice [13]: inhibits VRE
Phase contrast microscopy of VRE versus control ([14]; FIG. 21): smaller, less numerous, more frequently in a single coccus arrangement and surrounded by more cellular debris
Fluorescence microscopy of VRE (SYTO9 / propidium iodide) versus control ([14]; FIG. 22): less viable
Gram stain light microscopy of VRE versus control ([14]; FIG. 23): generally lacked purple staining

nisin
VRE growth (VRE CFU) in filtered culture supernatant or nisin medium ([15]; filtered supernatant, nisin extract powder 1 mg per 1 mL medium, FIG. 31 left panel): inhibited VRE
VRE growth (VRE CFU) with greater than 100 kDa concentrated samples ([15]; samples concentrated by ultrafiltration, cut off greater than 100 kDa, diluted to original volume, FIG. 31 right panel): inhibited VRE
